The target in one data set is human GlyT1c transporter (Homo sapiens (Human), UniProt P48067). In words: Radioligand binding assay using recombinant CHO cell membranes expressing human GlyT1. The settings on record: read-out: radioligand binding Kiapp. How it is done: 2. Radioligand Binding Assays Using Recombinant CHO Cell Membranes Expressing Human GlyT1:
Radioligand binding to human GlyT1c transporter-expressing membranes was determined as described in Mezler et al., Molecular Pharmacology 74:1705-1715, 2008.

A further data set has as its target MDR1 (P-gp) (Homo sapiens (Human), UniProt P08183). In words: Efflux ratio in MDR1-MDCK bidirectional transport. In kind it is in vitro ADME. To be noted: dog; MDR1-MDCK cell monolayers, 1 μM in HBSS-pH 7.4, 1 h incubation at 37 C. On the procedure:
3. Determination of Efflux Ratio Using Madin-Darby Canine Kidney Type II Cells
Bidirectional transport experiments were performed on Madin-Darby Canine Kidney Type II cells over-expressing multidrug resistance protein 1 (MDR1-MDCK) to evaluate the compounds as potential P-gp substrates.
Compounds were added at 1 μM in HBSS-pH 7.4 (hanks balanced salt solution) to either the apical or basolateral side of MDR1-MDCK cell monolayers grown on Millicell 96-Cell polycarbonate filters. Samples were collected from both apical and basolateral sides at time 0 and after 1 h incubation at 37 C, compounds concentrations were measured by HPLC/MS/MS and permeability coefficients were then determined in both transport directions. The efflux ratio was subsequently calculated from the permeability coefficient.

A value given as a limit tells only on which side of the number the result lay.

human GlyT1c transporter, sequence (P48067 whole entry): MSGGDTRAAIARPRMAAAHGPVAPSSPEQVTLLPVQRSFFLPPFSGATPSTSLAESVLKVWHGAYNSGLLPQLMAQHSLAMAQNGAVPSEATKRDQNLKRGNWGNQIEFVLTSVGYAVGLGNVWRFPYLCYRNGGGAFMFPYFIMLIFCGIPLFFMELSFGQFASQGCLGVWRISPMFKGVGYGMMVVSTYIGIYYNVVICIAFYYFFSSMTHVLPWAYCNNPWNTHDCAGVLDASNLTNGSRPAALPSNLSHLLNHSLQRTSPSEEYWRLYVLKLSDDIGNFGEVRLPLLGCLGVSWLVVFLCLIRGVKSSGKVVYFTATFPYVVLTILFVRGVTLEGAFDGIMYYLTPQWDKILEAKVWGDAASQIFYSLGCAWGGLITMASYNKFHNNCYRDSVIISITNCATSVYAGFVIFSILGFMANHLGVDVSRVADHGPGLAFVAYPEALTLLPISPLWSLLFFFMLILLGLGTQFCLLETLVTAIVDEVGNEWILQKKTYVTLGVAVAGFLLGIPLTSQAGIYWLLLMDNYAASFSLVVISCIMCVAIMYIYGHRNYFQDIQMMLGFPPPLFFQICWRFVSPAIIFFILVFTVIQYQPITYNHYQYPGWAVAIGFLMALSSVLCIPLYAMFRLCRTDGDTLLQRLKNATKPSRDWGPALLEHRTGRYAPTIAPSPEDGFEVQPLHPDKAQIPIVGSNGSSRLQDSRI
MDR1 (P-gp), sequence (P08183 whole entry, species assumed): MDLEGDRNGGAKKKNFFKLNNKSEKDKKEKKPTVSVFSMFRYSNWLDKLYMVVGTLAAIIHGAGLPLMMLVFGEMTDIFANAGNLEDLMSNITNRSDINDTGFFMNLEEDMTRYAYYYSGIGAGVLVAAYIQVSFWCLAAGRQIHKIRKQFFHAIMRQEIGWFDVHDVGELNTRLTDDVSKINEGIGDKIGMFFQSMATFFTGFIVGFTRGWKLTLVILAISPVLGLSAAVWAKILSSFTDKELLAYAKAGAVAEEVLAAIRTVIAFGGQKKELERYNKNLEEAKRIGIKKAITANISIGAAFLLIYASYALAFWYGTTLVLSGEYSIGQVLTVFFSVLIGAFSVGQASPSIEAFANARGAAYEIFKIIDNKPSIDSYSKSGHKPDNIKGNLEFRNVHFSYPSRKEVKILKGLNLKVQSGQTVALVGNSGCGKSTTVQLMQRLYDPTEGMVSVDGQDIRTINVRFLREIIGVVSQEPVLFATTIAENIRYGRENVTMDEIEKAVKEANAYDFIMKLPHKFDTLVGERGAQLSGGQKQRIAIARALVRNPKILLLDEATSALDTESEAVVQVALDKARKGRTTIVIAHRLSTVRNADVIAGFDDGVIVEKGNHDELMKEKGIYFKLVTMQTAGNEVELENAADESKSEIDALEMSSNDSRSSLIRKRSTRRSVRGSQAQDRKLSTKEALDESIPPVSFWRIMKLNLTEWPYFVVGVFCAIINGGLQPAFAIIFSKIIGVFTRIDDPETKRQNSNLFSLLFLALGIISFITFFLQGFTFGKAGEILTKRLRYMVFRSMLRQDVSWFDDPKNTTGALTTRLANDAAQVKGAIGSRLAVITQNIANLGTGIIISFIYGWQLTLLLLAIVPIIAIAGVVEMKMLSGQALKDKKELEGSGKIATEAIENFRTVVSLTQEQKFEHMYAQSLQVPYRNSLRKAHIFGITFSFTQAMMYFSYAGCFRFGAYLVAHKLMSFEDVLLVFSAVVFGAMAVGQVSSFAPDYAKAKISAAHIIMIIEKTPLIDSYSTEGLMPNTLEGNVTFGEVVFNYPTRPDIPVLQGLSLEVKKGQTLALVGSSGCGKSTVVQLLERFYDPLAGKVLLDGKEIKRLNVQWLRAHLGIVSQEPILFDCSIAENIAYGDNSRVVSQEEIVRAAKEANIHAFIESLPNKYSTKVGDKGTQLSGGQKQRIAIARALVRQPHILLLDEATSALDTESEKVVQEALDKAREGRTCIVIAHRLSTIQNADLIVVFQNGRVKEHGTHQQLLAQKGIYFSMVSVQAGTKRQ

The term efflux ratio denotes the permeability from basolateral to apical divided by that in the opposite direction, in the common usage. In the case of `Cn1cnc(S(=O)(=O)NCc2ccc3c(c2)C(Cc2ccccc2)C(N2CC4CC4C2)CC3)c1.O=C(O)/C=C/C(=O)O` (stereo not drawn) [Example 1, cis-N-({7-[3-Azabicyclo[3.1.0]hex-3-yl]-8-benzyl-5,6,7,8-tetrahydronaphthalen-2-yl}methyl)-1-methyl-1H-imidazole-4-sulfonamide(2E)-but-2-enedioate], at human GlyT1c transporter, the Ki was < 0.01 µM. The efflux ratio at 1 h, 1 μM at MDR1 (P-gp) was 3.2.

As to `Cn1cnc(S(=O)(=O)NCCOc2ccc3c(c2)C(Cc2ccccc2)C(N2CC4CC4C2)CC3)c1` (centres unmarked) [Example 2, N-[2-({7-[3-Azabicyclo[3.1.0]hex-3-yl]-8-benzyl-5,6,7,8-tetrahydronaphthalen-2-yl}oxy)ethyl]-1-methyl-1H-imidazole-4-sulfonamide(2E)-but-2-enedioate], on human GlyT1c transporter, the Ki is < 0.01 µM.

Regarding `Cn1cc(S(=O)(=O)NCCOc2ccc3c(c2)C(Cc2ccccc2)C(N2CC4CC4C2)CC3)cn1` (centres unmarked) [Example 3, N-[2-({7-[3-Azabicyclo[3.1.0]hex-3-yl]-8-benzyl-5,6,7,8-tetrahydronaphthalen-2-yl}oxy)ethyl]-1-methyl-1H-pyrazole-4-sulfonamide(2E)-but-2-enedioate], the Ki on human GlyT1c transporter was < 0.01 µM.

With `Cn1cnc(S(=O)(=O)NCCOc2ccc3c(c2)C(Cc2ccccc2F)C(N2CC4CC4C2)CC3)c1` (centres unmarked) [Example 5, N-(2-{[7-[3-Azabicyclo[3.1.0]hex-3-yl]-8-(2-fluorobenzyl)-5,6,7,8-tetrahydronaphthalen-2-yl]oxy}ethyl)-1-methyl-1H-imidazole-4-sulfonamide], the Ki on human GlyT1c transporter was < 1 µM.

In the case of `CCS(=O)(=O)NCc1ccc2c(c1)C(Cc1ccccc1)C(NC1(C#N)COC1)CC2` (centres unmarked) [Example 6, N-((8-Benzyl-7-(3-cyanooxetan-3-ylamino)-5,6,7,8-tetrahydronaphthalen-2-yl)methyl)ethanesulfonamide], the Ki on human GlyT1c transporter is < 1 µM.

As for `CCCS(=O)(=O)NCc1ccc2c(c1)C(Cc1ccccc1)C(NC1(C#N)COC1)CC2` (centres unmarked) [Example 7, N-((8-Benzyl-7-(3-cyanooxetan-3-ylamino)-5,6,7,8-tetrahydronaphthalen-2-yl)methyl)propane-1-sulfonamide], the Ki on human GlyT1c transporter was < 1 µM.

On to `N#CC1(NC2CCc3ccc(CNS(=O)(=O)C4CCC4)cc3C2Cc2ccccc2)COC1` (centres unmarked) [Example 8, N-((8-Benzyl-7-(3-cyanooxetan-3-ylamino)-5,6,7,8-tetrahydronaphthalen-2-yl)methyl)cyclobutanesulfonamide], for which the Ki at human GlyT1c transporter is < 1 µM.

As to `N#CC1(NC2CCc3ccc(CNS(=O)(=O)CC4CC4)cc3C2Cc2ccccc2)COC1` (centres unmarked) [Example 9, N-((8-Benzyl-7-(3-cyanooxetan-3-ylamino)-5,6,7,8-tetrahydronaphthalen-2-yl)methyl)-1-cyclopropylmethanesulfonamide], at human GlyT1c transporter, the Ki is < 0.1 µM. Moreover, the efflux ratio at 1 h, 1 μM on MDR1 (P-gp) turned out to be 3.5.

`Cn1cnc(S(=O)(=O)NCCOc2cc3c(cc2C#N)CCC(N2CC4CC4C2)C3Cc2ccccc2)c1` (centres unmarked) [Example 10, N-[2-({7-[3-Azabicyclo[3.1.0]hex-3-yl]-8-benzyl-3-cyano-5,6,7,8-tetrahydronaphthalen-2-yl}oxy)ethyl]-1-methyl-1H-imidazole-4-sulfonamide(2E)-but-2-enedioate]: the Ki at human GlyT1c transporter is < 1 µM.

The values are drawn from patent US8846741B2, “N-substituted aminobenzocycloheptene, aminotetraline, aminoindane and phenalkylamine derivatives, pharmaceutical compositions containing them, and their use in therapy” (AbbVie Deutschland GmbH & Co. KG, priority 2011, dated 2014).
